The record followed here is patent US10647679B2, “N-methyl-D-aspartate receptor (NMDAR) potentiators, pharmaceutical compositions, and uses related thereto” (Emory University, priority 2015, dated 2020).

Like-named read-outs stand apart in the source and are kept apart here.

Common to all, as to format: cell-based
The target in assay [1] is T1, recombinant rat GluN1/GluN2C (Rattus norvegicus, UniProt Q00961).
T1 construct: expressed in transfected cells; host or cells: Xenopus laevis oocytes (Ecocyte) injected with in vitro transcribed cRNA
The experiment in a line: Two-electrode voltage-clamp (TEVC) recordings in Xenopus laevis oocytes, GluN1/GluN2C. As to conditions: for GluN2C EC50 (μM)/Max %: Max %: maximum potentiation, response without modulator = 100%; for EC50 (max.) (μM %) GluN2C: fitted maximum response: percentage of the initial glutamate (100 μM) and glycine (30 μM) current. The procedure: (§1) Data are from between 3-26 oocytes from 2-5 frogs for each compound and receptor tested.
(§2) Two-electrode voltage-clamp recordings were performed in Xenopus laevis oocytes (Ecocyte) expressing recombinant rat GluN1/GluN2A, GluN1/GluN2B, GluN1/GluN2C, GluN1/GluN2D. cRNA was transcribed in vitro (Ambion), diluted with nuclease free water, and injected at a ratio of 1:2 GluN1:GluN2 (5-10 ng total cRNA). The oocytes were kept in Barth's solution comprised of (in mM) 88 NaCl, 5 Tris-HCl, 2.4 NaHCO3, 1 KCl, 0.84 MgSO4, 0.41 CaCl2, and 0.33 Ca(NO3)2 at pH 7.4 at 15-17° C. for two to five days before experiments. Oocytes were placed into a perfusion chamber and continually washed with recording solution containing (in mM) 90 NaCl, 1.0 KCl, 0.5 BaCl2, 0.005 EDTA, and 10 HEPES at pH 7.4 (23° C.). Voltage clamp recordings were conducted at a holding potential of −40 mV. All compounds were made as 20 mM stock solutions in DMSO and dissolved to reach the final concentration in recording solution. Final DMSO content was 0.05-0.5% (vol/vol). Some oocytes expressing GluN1/GluN2A were pretreated with […] BAPTA-AM for 10 minutes or injected with […] of 2 mM K-BAPTA to prevent gradual run-up of the current response.
In general terms: Two-electrode voltage clamp is typically applied to oocytes expressing channels or transporters.

Assay [2] has as its target T2, recombinant rat GluN1/GluN2B (Rattus norvegicus, UniProt Q00960).
T2 construct: expressed in transfected cells; host or cells: Xenopus laevis oocytes (Ecocyte) injected with in vitro transcribed cRNA
The experiment in a line: Two-electrode voltage-clamp (TEVC) recordings in Xenopus laevis oocytes, GluN1/GluN2B. As to conditions: for EC50: fitted when potentiation at 30 μM exceeded 120%, Tables 3, 5-7, read-out: EC50 (max.) (μM %) GluN2B: fitted EC50; for GluN2B EC50 (μM)/Max %: Max %: maximum potentiation, response without modulator = 100%; for EC50 (max.) (μM %) GluN2B: fitted maximum response: percentage of the initial glutamate (100 μM) and glycine (30 μM) current. The procedure:
as §1, §2

Assay [3] addresses T3, recombinant rat GluN1/GluN2D (Rattus norvegicus, UniProt Q62645).
T3 construct: expressed in transfected cells; host or cells: Xenopus laevis oocytes (Ecocyte) injected with in vitro transcribed cRNA
The experiment in a line: Two-electrode voltage-clamp (TEVC) recordings in Xenopus laevis oocytes, GluN1/GluN2D. As to conditions: for GluN2D EC50 (μM)/Max %: Max %: maximum potentiation, response without modulator = 100%; for EC50 (max.) (μM %) GluN2D: fitted maximum response: percentage of the initial glutamate (100 μM) and glycine (30 μM) current. The procedure:
as §1, §2

The target in assay [4] is T4, recombinant rat GluN1/GluN2C (Rattus norvegicus, UniProt P35439+Q00961).
T4 construct: expressed in transfected cells; host or cells: Xenopus laevis oocytes (Ecocyte) injected with in vitro transcribed cRNA
The experiment in a line: Two-electrode voltage-clamp (TEVC) recordings in Xenopus laevis oocytes, GluN1/GluN2C. The conditions noted are these: maximum potentiation, response without modulator = 100%; read-out: GluN2C EC50 (μM)/Max %: Max %. The procedure:
as §1, §2

Assay [5] concerns the target T5, recombinant rat GluN1/GluN2B (Rattus norvegicus, UniProt P35439+Q00960).
T5 construct: expressed in transfected cells; host or cells: Xenopus laevis oocytes (Ecocyte) injected with in vitro transcribed cRNA
The experiment in a line: Two-electrode voltage-clamp (TEVC) recordings in Xenopus laevis oocytes, GluN1/GluN2B. The procedure: as §1, §2

The mark [6] stands for this setting: fitted when potentiation at 30 μM exceeded 120%, Tables 3, 5-7, read-out: EC50 (max.) (μM %) GluN2C: fitted EC50.
[7] abbreviates: fitted when potentiation at 30 μM exceeded 120%, Tables 3, 5-7, read-out: EC50 (max.) (μM %) GluN2D: fitted EC50.
The mark [8] stands for this setting: maximum potentiation, response without modulator = 100%, read-out: GluN2B EC50 (μM)/Max %: Max %.

T1 sequence (Q00961 20-1237, other chains not shown): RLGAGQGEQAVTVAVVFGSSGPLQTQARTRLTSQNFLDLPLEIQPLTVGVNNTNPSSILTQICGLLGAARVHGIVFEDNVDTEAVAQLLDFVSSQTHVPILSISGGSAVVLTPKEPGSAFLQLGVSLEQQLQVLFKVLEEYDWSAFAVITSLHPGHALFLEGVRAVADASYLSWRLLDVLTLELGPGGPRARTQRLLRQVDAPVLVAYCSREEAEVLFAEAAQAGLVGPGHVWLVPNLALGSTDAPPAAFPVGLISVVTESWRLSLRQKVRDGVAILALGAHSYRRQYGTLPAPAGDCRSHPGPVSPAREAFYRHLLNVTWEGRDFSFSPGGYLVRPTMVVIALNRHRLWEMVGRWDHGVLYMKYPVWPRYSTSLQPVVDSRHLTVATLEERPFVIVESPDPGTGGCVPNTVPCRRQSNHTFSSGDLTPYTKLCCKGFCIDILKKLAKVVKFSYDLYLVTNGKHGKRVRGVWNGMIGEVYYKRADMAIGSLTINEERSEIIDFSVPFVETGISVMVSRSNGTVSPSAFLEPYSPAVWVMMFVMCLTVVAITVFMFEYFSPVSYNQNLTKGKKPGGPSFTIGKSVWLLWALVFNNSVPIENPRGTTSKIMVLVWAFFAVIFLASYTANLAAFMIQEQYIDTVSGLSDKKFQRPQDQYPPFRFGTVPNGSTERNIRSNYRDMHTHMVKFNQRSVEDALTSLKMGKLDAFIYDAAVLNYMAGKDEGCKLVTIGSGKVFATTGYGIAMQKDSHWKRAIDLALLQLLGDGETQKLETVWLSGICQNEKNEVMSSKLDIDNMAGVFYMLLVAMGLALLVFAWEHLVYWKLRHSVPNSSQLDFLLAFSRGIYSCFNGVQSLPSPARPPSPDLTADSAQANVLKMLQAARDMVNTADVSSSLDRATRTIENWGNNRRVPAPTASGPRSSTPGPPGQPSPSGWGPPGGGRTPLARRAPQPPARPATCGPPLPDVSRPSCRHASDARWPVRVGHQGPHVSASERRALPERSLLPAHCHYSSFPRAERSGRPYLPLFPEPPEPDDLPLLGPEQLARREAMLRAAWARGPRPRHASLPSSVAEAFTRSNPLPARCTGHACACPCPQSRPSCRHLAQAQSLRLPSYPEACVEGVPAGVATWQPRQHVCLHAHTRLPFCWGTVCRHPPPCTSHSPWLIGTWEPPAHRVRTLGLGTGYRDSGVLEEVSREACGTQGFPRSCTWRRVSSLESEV
T4 sequence (Q00961 20-1237, other chains not shown): as above
T5 sequence (Q00960 27-1482, other chains not shown): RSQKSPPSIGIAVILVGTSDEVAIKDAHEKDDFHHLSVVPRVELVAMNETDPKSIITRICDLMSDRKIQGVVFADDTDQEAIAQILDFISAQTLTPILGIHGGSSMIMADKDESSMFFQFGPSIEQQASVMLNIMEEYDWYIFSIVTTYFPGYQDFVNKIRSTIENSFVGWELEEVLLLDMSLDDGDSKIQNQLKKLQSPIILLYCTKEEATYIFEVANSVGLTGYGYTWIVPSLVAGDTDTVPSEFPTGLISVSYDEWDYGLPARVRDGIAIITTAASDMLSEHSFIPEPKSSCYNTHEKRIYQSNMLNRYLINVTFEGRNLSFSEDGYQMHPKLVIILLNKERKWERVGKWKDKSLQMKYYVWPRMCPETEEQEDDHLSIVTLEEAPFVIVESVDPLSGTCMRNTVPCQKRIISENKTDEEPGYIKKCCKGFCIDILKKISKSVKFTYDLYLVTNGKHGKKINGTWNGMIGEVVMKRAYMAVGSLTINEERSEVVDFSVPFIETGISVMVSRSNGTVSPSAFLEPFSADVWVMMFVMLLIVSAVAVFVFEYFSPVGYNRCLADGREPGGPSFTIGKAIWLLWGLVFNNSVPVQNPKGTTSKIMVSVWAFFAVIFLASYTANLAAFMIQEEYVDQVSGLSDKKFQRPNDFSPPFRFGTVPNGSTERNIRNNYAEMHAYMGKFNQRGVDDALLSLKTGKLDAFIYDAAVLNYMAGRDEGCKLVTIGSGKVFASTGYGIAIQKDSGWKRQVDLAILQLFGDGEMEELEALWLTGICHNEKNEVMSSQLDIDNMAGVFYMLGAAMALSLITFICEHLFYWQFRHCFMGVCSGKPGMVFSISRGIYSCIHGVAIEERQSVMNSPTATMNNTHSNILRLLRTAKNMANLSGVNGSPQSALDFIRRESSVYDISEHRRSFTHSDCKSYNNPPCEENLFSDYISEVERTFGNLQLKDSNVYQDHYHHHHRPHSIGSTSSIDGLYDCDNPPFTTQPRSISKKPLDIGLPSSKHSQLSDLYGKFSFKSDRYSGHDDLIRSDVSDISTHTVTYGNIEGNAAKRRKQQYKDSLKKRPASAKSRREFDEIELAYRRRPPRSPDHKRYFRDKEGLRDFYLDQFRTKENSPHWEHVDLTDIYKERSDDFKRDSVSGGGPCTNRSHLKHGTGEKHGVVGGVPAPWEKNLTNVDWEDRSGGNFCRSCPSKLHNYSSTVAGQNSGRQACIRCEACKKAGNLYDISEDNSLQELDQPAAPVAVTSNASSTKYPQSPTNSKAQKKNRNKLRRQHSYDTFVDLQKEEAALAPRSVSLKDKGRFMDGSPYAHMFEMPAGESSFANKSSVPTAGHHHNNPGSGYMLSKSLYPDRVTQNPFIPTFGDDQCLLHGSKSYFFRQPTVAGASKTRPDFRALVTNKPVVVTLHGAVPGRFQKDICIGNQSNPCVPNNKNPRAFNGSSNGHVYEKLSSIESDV
T2 sequence (Q00960 27-1482, other chains not shown): as above

As to `CCOc1ccc(OCC2c3ccc(OC(C)C)cc3CCN2C(=S)c2cccc(F)c2)cc1` (racemic) [1180-154], in assay [1] (30 μM compound, Tables 5-7), the “I30 μM/Icontrol (mean ± SEM, %) GluN2C” value was 166%. In addition, the EC50 (as a rule, the concentration giving half of the maximal effect) in assay [1] (setting [6]) amounted to 1.4 µM. Moreover, in assay [1], the “GluN2C EC50 (μM)/Max %: Max %” value was determined as 191% and the “EC50 (max.) (μM %) GluN2C: fitted maximum response” value was “(145%)”. Besides, the “I30 μM/Icontrol (mean ± SEM, %) GluN2B” value in assay [2] (30 μM compound, Tables 5-7) stood at 184%. Further, in assay [2], the EC50 stood at 0.7 µM, the “GluN2B EC50 (μM)/Max %: Max %” value is 200% and the “EC50 (max.) (μM %) GluN2B: fitted maximum response” value is “(190%)”. Moreover, the “I30 μM/Icontrol (mean ± SEM, %) GluN2D” value in assay [3] (30 μM compound, Tables 5-7) stood at 154%. Moreover, the EC50 in assay [3] (setting [7]) is 1.2 µM. Moreover, in assay [3], the “GluN2D EC50 (μM)/Max %: Max %” value was 159% and the “EC50 (max.) (μM %) GluN2D: fitted maximum response” value is on record as “(153%)”.
Regarding `COc1ccc(OCC2c3cc(OC)c(OC)cc3CCN2C(=S)c2cccc(Br)c2)cc1` (racemic) [1180-157], in assay [1], the “EC50 & Max Effect: 2C (μM)” value is given as “Inactive”. The “EC50 & Max Effect: 2D (μM)” value in assay [3] is “Inactive”.
For `COc1ccc(OCC2c3cc(OC)c(OC)cc3CCN2C(=S)c2cccc(Cl)c2)cc1` (racemic) [1180-161], the “EC50 & Max Effect: 2C (μM)” value in assay [1] is reported as “Inactive”. Besides, in assay [3], the “EC50 & Max Effect: 2D (μM)” value was “Inactive”.
As for `CCOc1ccc(OCC2c3ccc(OC4CCCC4)cc3CCN2C(=S)c2cccc(F)c2)cc1` (racemic) [1180-162], the “EC50 & Max Effect: 2C Max (%)” value in assay [1] is reported as 218%. The concentration for a half-maximal effect (EC50) in assay [1] (read-out: EC50 & Max Effect: 2C) was 0.26 µM; in assay [3] (read-out: EC50 & Max Effect: 2D), 0.39 µM. Moreover, the “EC50 & Max Effect: 2D Max (%)” value in assay [3] is on record as 295%.
For the compound `COc1ccc(OCC2c3ccc(OC(C)C)cc3CCN2C(=S)c2cccc(Cl)c2)cc1` (racemic) [1180-163], the “I10 μM/Icontrol (mean ± SEM, %) GluN2C” value in assay [1] (10 μM compound, Table 3) is listed as 272%. Also, the “EC50 & Max Effect: 2C Max (%)” value in assay [1] (Tables 11-13) was found to be 247%. Moreover, in assay [1] (Tables 11-13, read-out: EC50 & Max Effect: 2C), the EC50 amounted to 0.43 µM. Besides, the EC50 in assay [1] (setting [6]) is 0.32 µM. In assay [1], the “GluN2C EC50 (μM)/Max %: Max %” value worked out at 247% and the “EC50 (max.) (μM %) GluN2C: fitted maximum response” value is “(273%)”. Besides, the “I10 μM/Icontrol (mean ± SEM, %) GluN2B” value in assay [2] (10 μM compound, Table 3) is 212%. For the same compound, in assay [2], the EC50 worked out at 0.11 µM, the “GluN2B EC50 (μM)/Max %: Max %” value was found to be 262% and the “EC50 (max.) (μM %) GluN2B: fitted maximum response” value is “(228%)”. Further, in assay [3] (10 μM compound, Table 3), the “I10 μM/Icontrol (mean ± SEM, %) GluN2D” value is 231%. Besides, the “EC50 & Max Effect: 2D Max (%)” value in assay [3] (Tables 11-13) was 249%. Moreover, the EC50 in assay [3] (Tables 11-13, read-out: EC50 & Max Effect: 2D) is 0.43 µM. In assay [3] (setting [7]), the EC50 turned out to be 0.14 µM. In addition, in assay [3], the “GluN2D EC50 (μM)/Max %: Max %” value was 249% and the “EC50 (max.) (μM %) GluN2D: fitted maximum response” value is listed as “(260%)”.
Regarding `CCOc1ccc(OCC2c3ccc(OC(C)C)cc3CCN2C(=O)c2cccc(Cl)c2)cc1` (stereo not drawn) [1180-83], the Emax was found to be 125% in assay [4] and 141% in assay [5] (setting [8]).
Take `CCOc1ccc(OCC2c3ccc(OC(C)C)cc3CCN2C(=O)c2cccc(Br)c2)cc1` (stereo not drawn) [1180-86]: the Emax in assay [4] amounted to 132%; in assay [5] (setting [8]) it was 138%.
With `CCOc1ccc(OCC2c3ccc(OC(C)C)cc3CCN2C(=O)c2cccc(C(F)(F)F)c2)cc1` (stereo not drawn) [1180-92], the EC50 in assay [5] (fitted when potentiation at 30 μM exceeded 120%, Tables 3, 5-7, read-out: EC50 (max.) (μM %) GluN2B: fitted EC50) stood at 2.5 µM. In addition, in assay [5] (percentage of the initial glutamate (100 μM) and glycine (30 μM) current, read-out: EC50 (max.) (μM %) GluN2B: fitted maximum response), the Emax is 122%.
In the case of `CCOc1ccc(OCC2c3ccc(OC(C)C)cc3CCN2C(=S)c2ccc(Cl)c(Cl)c2)cc1` (stereo not drawn) [1180-155], the Emax in assay [4] amounted to 169%; in assay [5] (setting [8]), 157%.
With `CCOc1ccc(OCC2c3ccc(OC(C)C)cc3CCN2S(=O)(=O)c2cccc(Cl)c2)cc1` (stereo not drawn) [1180-199], the “GluN2C response % at 10 μM” value in assay [1] (at 10 μM, Table 9) came to 142% at 10 μM.
For the compound `CC=CCC(=O)N1CCc2cc(OC)ccc2C1COc1ccc(OC)cc1` (stereo not drawn) [1180-235], in assay [1], the “GluN2C response % at 30 µM” value turned out to be 184% at 30. Moreover, in assay [2], the “GluN2B response % at 30 µM” value is on record as 103% at 30. The “GluN2D response % at 30 µM” value in assay [3] was 222% at 30.
Take `CCOCC(=O)N1CCc2cc(OC)ccc2C1COc1ccc(OC)cc1` (stereo not drawn) [1180-240]: in assay [1], the “GluN2C response % at 30 µM” value was determined as 115% at 30. The “GluN2B response % at 30 µM” value in assay [2] turned out to be 100% at 30. In assay [3], the “GluN2D response % at 30 µM” value was 114% at 30.
As for `COc1ccc(OCC2c3ccc(OC)cc3CCN2C(=O)c2cnc(Cl)s2)cc1` (stereo not drawn) [1180-241], in assay [1], the “GluN2C response % at 30 µM” value is 114% at 30. Also, the “GluN2B response % at 30 µM” value in assay [2] is 88% at 30. Also, the “GluN2D response % at 30 µM” value in assay [3] is 131% at 30.
